Key:
Assay type in all cases: cell-based
Septoria glycines = settings: 63 ppm
Colleotrichum lagenarium = settings: 63 ppm, 2% aqueous biomalt solution, 405 nm, 7 days after inoculation, Abbot's formula
Pyrenophora teres = settings: 63 ppm
Phytophthora infestans = settings: 63 ppm, pea juice-based aqueous nutrient medium, 405 nm, 7 days after inoculation, Abbot's formula
Colleotrichum truncatum = settings: 63 ppm, 2% aqueous biomalt solution, 405 nm, 7 days after inoculation, Abbot's formula
Rhynchosporium secalis = settings: 63 ppm
[1] = system: Pseudocercosporella herpotrichoides R-Type; settings: 63 ppm
Septoria tritici = settings: 63 ppm
Corynespora cassiicola = settings: 63 ppm
Leptosphaeria nodorum = settings: 63 ppm
[2] = system: Pseudocercosporella herpotrichoides W-Type; settings: 63 ppm
Monographella nivalis = settings: 63 ppm
Pyricularia oryzae = settings: 63 ppm, 2% aqueous biomalt solution, 405 nm, 7 days after inoculation, Abbot's formula

Measured: Efficacy

CCN/C(=N\Nc1c(Cl)cc(C(F)(F)F)cc1Cl)C1(C)CC1(Cl)Cl (stereo not drawn) [compound I-2, N-Ethyl-2,2-dichloro-1-methylcyclopropane-carboxamide-2-(2,6-dichloro-α,α,α-trifluoro-p-tolyl)hydrazone]
89%: Colleotrichum lagenarium
91%: Pyricularia oryzae
96%: Pyrenophora teres
100%: all other assays above

Source: patent US20100099774A1 (priority 2007, published 2010)
